Assay results: patent US11851449B2, “Heterocyclic amide compounds having an RORvt inhibitory action” (TAKEDA PHARMACEUTICAL COMPANY LIMITED, priority 2013, dated 2023)
Where two headings read alike, the source gives them in different places.

What was measured:
[1] = target: T1, RORγt (Homo sapiens, UniProt P51449); experiment: RORγt binding test (TR-FRET, fluorescent-labeled cholesterol); conditions: read-out: binding inhibitory rate (%) of fluorescent-labeled cholesterol to RORγt at test compound 1 μM
T1 sequence (P51449 1-497 isoform P51449-2): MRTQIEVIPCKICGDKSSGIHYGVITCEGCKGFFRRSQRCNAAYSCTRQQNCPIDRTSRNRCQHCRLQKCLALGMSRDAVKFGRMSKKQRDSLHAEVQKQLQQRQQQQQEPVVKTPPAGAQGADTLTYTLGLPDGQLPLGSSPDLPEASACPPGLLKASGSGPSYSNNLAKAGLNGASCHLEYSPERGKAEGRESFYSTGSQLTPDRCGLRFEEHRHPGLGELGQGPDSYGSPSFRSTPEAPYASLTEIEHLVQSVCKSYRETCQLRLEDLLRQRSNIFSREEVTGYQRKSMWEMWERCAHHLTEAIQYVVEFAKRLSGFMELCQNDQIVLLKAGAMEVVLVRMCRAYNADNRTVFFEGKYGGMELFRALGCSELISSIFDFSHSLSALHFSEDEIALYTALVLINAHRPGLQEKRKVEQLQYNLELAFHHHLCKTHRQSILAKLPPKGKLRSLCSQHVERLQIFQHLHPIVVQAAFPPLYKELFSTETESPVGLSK
In short: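 His-tagged RORγt and BODIPY-cholesterol were incubated with compound for 20 min at room temperature in Tris-HCl pH 7.5, 100 mM NaCl, 1 mM DTT and 0.1% BSA. Terbium anti-His antibody was then added for a further 20 min.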

[2] = target: T1, RORγt; experiment: Cofactor recruitment test (Alpha Screen, biotinylated SRC-1 peptide); assay type: biochemical; conditions: read-out: signal value inhibitory rate (%) at test compound 1 μM
Method: Cofactor Recruitment Test
Cofactor recruitment test was performed by Alpha Screen (Histidine Detection Kit, PerkinElmer) method. First, a test compound was diluted with an assay buffer (50 mM Tris-HCl (pH 7.5), 50 mM KCl, 1 mM DTT, 0.1% BSA) and added to a 384 well plate by 5 μL. […] The mixture was stood in a dark place for 1 hr, and the signal value was measured by Envision (PerkinElmer).

[3] = target: T1, RORγt; experiment: Jurkat reporter test (human IL-17 ROR response element luciferase reporter); assay type: cell-based; conditions: read-out: luminescence level inhibitory rate (%) at test compound 3 μM
In short: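 Luminescence (Bright-Glo, 10 min, RT) was measured after overnight compound treatment of electroporated Jurkat cells (1350 V, 10 ms interval, 3 pulses). The reaction medium was RPMI with 10% lipid-reduced FCS, 10 mM HEPES (pH 7.5) and 5 μM lovastatin.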

[4] = test compound 3 μM, Jurkat cells

Structure (SMILES) | inhibition at 1 µM [1] [%] | inhibition at 1 µM [2] [%] | inhibition at 3 µM [3, 4] [%] | inhibition at 3 µM ([3]; Jurkat) [%]
CC(C)(C)c1ccc(NC(=O)[C@H](NC(=O)[C@@H]2CNC(=O)C2)c2ccc3c(c2)CCO3)cc1F [Example 111, (3S)—N-((1R)-2-((4-tert-butyl-3-fluorophenyl)amino)-1-(2,3-dihydro-1-benzofuran-5-yl)-2-oxoethyl)-5-oxopyrrolidine-3-carboxamide] | 100 | 53 | 97.4 | –
COCc1ccc([C@@H](NC(=O)Cc2nnc(C)o2)C(=O)Nc2cc(F)c([Si](C)(C)C)cc2F)cc1 [Example 56, (2R)—N-(2,5-difluoro-4-(trimethylsilyl)phenyl)-2-(4-(methoxymethyl)phenyl)-2-(((5-methyl-1,3,4-oxadiazol-2-yl)acetyl)amino)acetamide] | 102 | 97.7 | – | 100
COCc1ccc([C@@H](NC(=O)Cn2c(=O)cc[nH]c2=O)C(=O)Nc2ccc([Si](C)(C)C)c(F)c2)cc1 [Example 60, (2R)-2-(((2,6-dioxo-3,6-dihydropyrimidin-1 (2H)-yl)acetyl)amino)-N-(3-fluoro-4-(trimethylsilyl)phenyl)-2-(4-(methoxymethyl)phenyl)acetamide] | 102 | 96.6 | – | 99.7
COCc1ccc(C(NC(=O)Cc2nnc(C)o2)C(=O)Nc2ccc([Si](C)(C)C)c(F)c2)cc1 (stereo not drawn) [Example 35, N-(3-fluoro-4-(trimethylsilyl)phenyl)-2-(4-(methoxymethyl)phenyl)-2-(((5-methyl-1,3,4-oxadiazol-2-yl)acetyl)amino)acetamide] | 103 | 96.6 | – | 101
COCc1ccc([C@@H](NC(=O)CNC(C)=O)C(=O)Nc2ccc([Si](C)(C)C)c(F)c2)cc1 [Example 86, N^2-acetyl-N-((1R)-2-((3-fluoro-4-(trimethylsilyl)phenyl)amino)-1-(4-(methoxymethyl)phenyl)-2-oxoethyl)glycinamide] | 102 | 95.2 | – | 99.1
COCc1ccc([C@@H](NC(=O)[C@H]2CNC(=O)C2)C(=O)Nc2cc(F)c([Si](C)(C)C)cc2F)cc1 [Example 55, (3R)—N-((1R)-2-((2,5-difluoro-4-(trimethylsilyl)phenyl)amino)-1-(4-(methoxymethyl)phenyl)-2-oxoethyl)-5-oxopyrrolidine-3-carboxamide] | 102 | 95.8 | – | 98.6
COCc1ccc([C@@H](NC(=O)Cn2ccc(=O)[nH]c2=O)C(=O)Nc2ccc(C(C)(C)C)c(F)c2)cc1 [Example 116, (2R)—N-(4-tert-butyl-3-fluorophenyl)-2-(((2,4-dioxo-3,4-dihydropyrimidin-1(2H)-yl)acetyl)amino)-2-(4-(methoxymethyl)phenyl)acetamide] | 103 | 76.6 | 99.8 | –
Cn1ncc2cc([C@@H](NC(=O)Cc3cc(O)no3)C(=O)Nc3cc(F)c(C(C)(C)C)c(F)c3)ccc21 [Example 419, (2R)-N-(4-tert-butyl-3,5-difluorophenyl)-2-(((3-hydroxy-1,2-oxazol-5-yl)acetyl)amino)-2-(1-methyl-1H-indazol-5-yl)acetamide] | 103 | 87 | 101 | –
COCc1ccc([C@@H](NC(=O)CCCC(=O)O)C(=O)Nc2cc(F)c([Si](C)(C)C)c(F)c2)cc1 [Example 107, 5-(((1R)-2-((3,5-difluoro-4-(trimethylsilyl)phenyl)amino)-1-(4-(methoxymethyl)phenyl)-2-oxoethyl)amino)-5-oxopentanoic acid] | 103 | 95.7 | – | 100
COCc1ccc([C@@H](NC(=O)C2CCN(C(C)=O)CC2)C(=O)Nc2ccc([Si](C)(C)C)c(F)c2)cc1 [Example 87, 1-acetyl-N-((1R)-2-((3-fluoro-4-(trimethylsilyl)phenyl)amino)-1-(4-(methoxymethyl)phenyl)-2-oxoethyl)piperidine-4-carboxamide] | 102 | 83.9 | – | 98.2
COCc1ccc([C@@H](NC(=O)CC2CCOCC2)C(=O)Nc2ccc([Si](C)(C)C)c(F)c2)cc1 [Example 89, (2R)—N-(3-fluoro-4-(trimethylsilyl)phenyl)-2-(4-(methoxymethyl)phenyl)-2-((tetrahydro-2H-pyran-4-ylacetyl)amino)acetamide] | 103 | 95.5 | – | 101
COCc1ccc(C(NC(=O)Cn2cnccc2=O)C(=O)Nc2ccc([Si](C)(C)C)c(F)c2)cc1 (stereo not drawn) [Example 36, N-(3-fluoro-4-(trimethylsilyl)phenyl)-2-(4-(methoxymethyl)phenyl)-2-(((6-oxopyrimidin-1(6H)-yl)acetyl)amino)acetamide] | 96.2 | 98.2 | – | 99.8
COc1ccc(C(NC(=O)Cc2cnn(C)c2)C(=O)Nc2ccc([Si](C)(C)C)cc2)cc1 (stereo not drawn) [Example 20, 2-(4-methoxyphenyl)-2-(((1-methyl-1H-pyrazol-4-yl)acetyl)amino)-N-(4-(trimethylsilyl)phenyl)acetamide] | 101 | 73 | – | 91.8
COCc1ccc([C@@H](NC(=O)CN2C(=O)CNC2=O)C(=O)Nc2ccc([Si](C)(C)C)c(F)c2)cc1 [Example 62, (2R)-2-(((2,5-dioxoimidazolidin-1-yl)acetyl)amino)-N-(3-fluoro-4-(trimethylsilyl)phenyl)-2-(4-(methoxymethyl)phenyl)acetamide] | 99.9 | 96.3 | – | 97.8
COCc1ccc(C(NC(=O)C2CNC(=O)C2)C(=O)Nc2ccc([Si](C)(C)C)c(F)c2)cc1 (stereo not drawn) [Example 32, N-(2-((3-fluoro-4-(trimethylsilyl)phenyl)amino)-1-(4-(methoxymethyl)phenyl)-2-oxoethyl)-5-oxopyrrolidine-3-carboxamide] | 95.2 | 95.6 | – | 99.1
COCc1ccc([C@@H](NC(=O)N2CC[C@@H](F)C2)C(=O)Nc2ccc([Si](C)(C)C)c(F)c2)cc1 [Example 95, (3R)-3-fluoro-N-((1R)-2-((3-fluoro-4-(trimethylsilyl)phenyl)amino)-1-(4-(methoxymethyl)phenyl)-2-oxoethyl)pyrrolidine-1-carboxamide] | 99.3 | 93.8 | – | 99.8
COCc1ccc(C(C(=O)Nc2cc(F)c([Si](C)(C)C)c(F)c2)N(C)C(=O)c2cc(O)no2)cc1 (stereo not drawn) [Example 38, N-(2-((3,5-difluoro-4-(trimethylsilyl)phenyl)amino)-1-(4-(methoxymethyl)phenyl)-2-oxoethyl)-3-hydroxy-N-methyl-1,2-oxazole-5-carboxamide] | 102 | 99.7 | – | 100
COc1ccc(C(NC(=O)N2CC(O)C2)C(=O)Nc2ccc([Si](C)(C)C)c(F)c2)cc1 (stereo not drawn) [Example 30, N-(2-((3-fluoro-4-(trimethylsilyl)phenyl)amino)-1-(4-methoxyphenyl)-2-oxoethyl)-3-hydroxyazetidine-1-carboxamide] | 98.5 | 95.1 | – | 99.8
COCc1ccc([C@@H](NC(=O)C2CNC(=O)C2)C(=O)Nc2ccc(CC(C)(C)C)c(F)c2)cc1 (stereo in doubt) [Example 115, (3S)-N-((1R)-2-((4-(2,2-dimethylpropyl)-3-fluorophenyl)amino)-1-(4-(methoxymethyl)phenyl)-2-oxoethyl)-5-oxopyrrolidine-3-carboxamide] | 102 | 71.6 | 97.3 | –
CC(C)(C)c1ccc(NC(=O)[C@H](NC(=O)[C@@H](O)C(F)(F)F)C2CCOCC2)cc1Cl [Example 10, N-((1R)-2-((4-tert-butyl-3-chlorophenyl)amino)-2-oxo-1-(tetrahydro-2H-pyran-4-yl)ethyl)-3,3,3-trifluoro-2-hydroxypropanamide] | 102 | 2.04 | 95.3 | –
COCc1ccc(C(NC(=O)[C@@H]2CNC(=O)C2)C(=O)Nc2ccc(CC(C)(C)C)c(F)c2)cc1 (mixture of isomers) [Example 110, (3S)—N-(2-((4-(2,2-dimethylpropyl)-3-fluorophenyl)amino)-1-(4-(methoxymethyl)phenyl)-2-oxoethyl)-5-oxopyrrolidine-3-carboxamide] | 99.6 | 71.1 | 95.4 | –
